# Results as given in US12569563B2, “Selective HDAC6 degraders and methods of use thereof” (DANA-FARBER CANCER INSTITUTE, INC., priority 2019, dated 2026).
# Columns and labels:
# [1] = system: other identified HDAC proteins; assay: Multiplexed TMT mass spectrometry proteomics in Kelly cells, other HDAC abundance; type: cell-based, human; conditions: 1 μM, 2, 4, 8, and 16 hours
# Experimental: (§1) Lysis buffer (8 M Urea, 50 mM NaCl, 50 mM 4-(2hydroxyethyl)-1-piperazineethanesulfonic acid (EPPS) pH 8.5, protease and phosphatase inhibitors from Roche®) were added to the cell pellets and homogenized by 20 passes through a 21 gauge (1.25 in. long) needle to achieve a cell lysate with a protein concentration between 1-4 mg mL^−1. A micro-BCA assay (Pierce™) was used to determine the final protein concentration in the cell lysate. 200 μg of protein for each sample were reduced and alkylated as described above.
# Proteins were precipitated using methanol/chloroform. Four volumes of methanol were added to the cell lysate, followed by one volume of chloroform, and finally three volumes of water. The mixture was vortexed and centrifuged to separate the chloroform phase from the aqueous phase. […]
# (§2) Anhydrous ACN was added to each peptide sample to a final concentration of 30% v/v, and labeling was induced with the addition of TMT reagent to each sample at a ratio of 1:4 peptide:TMT label. […] The sample channels were combined at a 1:1:1:1:1:1:1:1:1:1:1 ratio, desalted using Cis solid phase extraction cartridges (Waters) and analyzed by LC-MS for channel ratio comparison. Samples were then combined using the adjusted volumes determined in the channel ratio analysis and dried down in a speed vacuum. […]
# HDAC6 = molecular target: T1, HDAC6 (Homo sapiens, UniProt Q9UBN7); assay: Multiplexed TMT mass spectrometry proteomics in Kelly cells, HDAC6 abundance; type: cell-based; parameters: endogenous in cells; host or cells: Kelly cells
# T1 sequence (Q9UBN7 1-1215): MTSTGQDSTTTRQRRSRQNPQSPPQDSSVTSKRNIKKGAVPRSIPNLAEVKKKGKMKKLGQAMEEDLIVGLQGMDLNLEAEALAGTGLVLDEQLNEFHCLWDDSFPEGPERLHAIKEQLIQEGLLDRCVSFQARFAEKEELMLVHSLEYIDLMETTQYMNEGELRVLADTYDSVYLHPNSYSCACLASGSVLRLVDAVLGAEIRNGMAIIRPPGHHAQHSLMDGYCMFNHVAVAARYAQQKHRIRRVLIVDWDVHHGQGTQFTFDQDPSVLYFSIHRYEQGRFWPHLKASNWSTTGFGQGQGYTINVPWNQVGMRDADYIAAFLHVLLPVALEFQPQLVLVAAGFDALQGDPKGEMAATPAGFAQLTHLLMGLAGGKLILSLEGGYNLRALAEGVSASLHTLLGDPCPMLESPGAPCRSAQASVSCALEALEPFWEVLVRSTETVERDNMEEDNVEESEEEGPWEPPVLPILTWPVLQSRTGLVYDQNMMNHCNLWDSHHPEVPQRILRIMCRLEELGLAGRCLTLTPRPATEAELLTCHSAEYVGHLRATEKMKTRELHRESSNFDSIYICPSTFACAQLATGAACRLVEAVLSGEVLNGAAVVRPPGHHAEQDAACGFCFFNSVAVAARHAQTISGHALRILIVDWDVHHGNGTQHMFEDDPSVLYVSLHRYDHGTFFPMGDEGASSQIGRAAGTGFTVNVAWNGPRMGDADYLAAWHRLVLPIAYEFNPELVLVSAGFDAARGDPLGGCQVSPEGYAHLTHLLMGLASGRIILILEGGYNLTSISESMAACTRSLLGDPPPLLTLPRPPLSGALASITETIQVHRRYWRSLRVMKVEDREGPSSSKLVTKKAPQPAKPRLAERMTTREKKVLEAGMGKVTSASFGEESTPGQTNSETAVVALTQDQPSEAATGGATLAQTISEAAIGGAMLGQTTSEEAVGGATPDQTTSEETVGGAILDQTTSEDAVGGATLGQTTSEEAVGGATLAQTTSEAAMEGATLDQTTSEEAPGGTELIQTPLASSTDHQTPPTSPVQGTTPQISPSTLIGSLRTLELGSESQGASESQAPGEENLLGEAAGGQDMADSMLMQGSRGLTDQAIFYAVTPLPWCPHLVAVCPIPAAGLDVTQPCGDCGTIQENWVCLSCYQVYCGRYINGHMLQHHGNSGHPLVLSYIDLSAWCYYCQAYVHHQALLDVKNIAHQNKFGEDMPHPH
# Experimental: as §1
# Proteins were precipitated using methanol/chloroform. Four volumes of methanol were added to the cell lysate, followed by one volume of chloroform, and finally three volumes of water. The mixture was vortexed and centrifuged to separate the chloroform phase from the aqueous phase. The precipitated protein was washed with three volumes of methanol, centrifuged and the resulting washed precipitated protein was allowed to air dry. The precipitated protein was resuspended in 4 M Urea, 50 mM HEPES pH 7.4, followed by dilution to 1 M urea with the addition of 200 mM EPPS, pH 8. Proteins were first digested with LysC (1:50; enzyme:protein) for 12 hours at room temperature. The LysC digestion was diluted to 0.5 M Urea with 200 mM EPPS pH 8 followed by digestion with trypsin (1:50; enzyme:protein) for 6 hours at 37° C. Tandem mass tag (TMT) reagents (Thermo Fisher Scientific™) were dissolved in anhydrous acetonitrile (ACN) according to manufacturer's instructions.
# as §2
smiles,measurement,setting,value
"CN(C(=O)CCCNc1cccc2c1C(=O)N(C1CCC(=O)NC1=O)C2=O)c1ccc(NC(=O)CCCCCCC(=O)NO)cc1 (stereo not shown) [Compound 1, N^1-(4-(4-((2-(2,6-dioxopiperidin-3-yl)-1,3-dioxoisoindolin-4-yl)amino)-N-methylbutanamido)phenyl)-N^8-hydroxyoctanediamide]",change in cellular protein levels of other identified HDAC proteins (heat map FIG. 5),[1],did not affect the cellular protein levels of the other identified HDAC proteins
same,change in cellular HDAC6 protein levels vs DMSO (heat map FIG. 5),"HDAC6; 1 μM, 2, 4, 8, and 16 hours",induced down regulation of cellular HDAC6 protein levels
same,"change in HDAC6 protein levels vs DMSO, time course (FIG. 4)","HDAC6; 1 μM, after 2 hours",significant reduction in HDAC6 protein levels
same,"course of HDAC6 protein levels, time course (FIG. 4)","HDAC6; 1 μM, over the course of 16 hours",continued to decrease
